According to ChEMBL document CHEMBL4138084, “Structure-activity relationship study of the tumour-targeting peptide A20FMDV2 via modification of Lys16, Leu13, and N- and/or C-terminal functionality” (Eur J Med Chem, 2017):

Legend:
Integrin alpha-V/beta-6 [1] = target: T1, Integrin alpha-V/beta-6 (Homo sapiens, UniProt P06756+P18564); test: Binding affinity to alphav/beta6 integrin in human A375Pbeta6 cells assessed as drug internalization at 100 nM after 15 mins by flow cytometric analysis relative to biotinylated A20FMDV2; format: ADME, cell-based; settings: 0.25 h, 0.1 µM
Target sequence in this assay (P06756 31-889 limits assumed): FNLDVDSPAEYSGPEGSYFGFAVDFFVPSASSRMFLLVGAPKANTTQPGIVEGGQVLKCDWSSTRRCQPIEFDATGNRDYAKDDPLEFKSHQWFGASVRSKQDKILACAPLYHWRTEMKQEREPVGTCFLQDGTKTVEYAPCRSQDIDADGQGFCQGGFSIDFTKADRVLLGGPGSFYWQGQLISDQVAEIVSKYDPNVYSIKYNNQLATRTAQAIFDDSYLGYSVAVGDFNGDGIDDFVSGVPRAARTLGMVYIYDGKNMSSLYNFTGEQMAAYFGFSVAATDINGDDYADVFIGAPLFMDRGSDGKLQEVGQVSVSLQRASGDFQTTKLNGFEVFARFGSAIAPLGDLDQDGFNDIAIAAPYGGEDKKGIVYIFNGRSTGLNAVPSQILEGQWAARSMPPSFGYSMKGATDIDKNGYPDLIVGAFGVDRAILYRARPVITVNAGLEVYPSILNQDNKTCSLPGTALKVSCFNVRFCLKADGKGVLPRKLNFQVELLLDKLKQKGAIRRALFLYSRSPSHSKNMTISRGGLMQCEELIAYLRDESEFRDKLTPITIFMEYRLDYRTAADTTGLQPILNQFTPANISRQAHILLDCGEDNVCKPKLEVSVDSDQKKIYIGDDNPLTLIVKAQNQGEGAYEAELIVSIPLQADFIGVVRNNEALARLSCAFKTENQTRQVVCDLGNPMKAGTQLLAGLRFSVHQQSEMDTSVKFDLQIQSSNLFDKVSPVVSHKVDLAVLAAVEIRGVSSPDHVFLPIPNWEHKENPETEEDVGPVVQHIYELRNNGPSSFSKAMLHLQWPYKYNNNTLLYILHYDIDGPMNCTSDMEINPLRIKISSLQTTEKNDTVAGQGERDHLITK
Target sequence in this assay (P06756 891-1048 limits assumed): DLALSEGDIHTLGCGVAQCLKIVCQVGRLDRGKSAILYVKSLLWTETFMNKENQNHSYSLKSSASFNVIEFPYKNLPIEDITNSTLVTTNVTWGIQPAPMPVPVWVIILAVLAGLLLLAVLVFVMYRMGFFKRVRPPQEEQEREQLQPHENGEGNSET
Target sequence in this assay (P18564 22-788 limits assumed): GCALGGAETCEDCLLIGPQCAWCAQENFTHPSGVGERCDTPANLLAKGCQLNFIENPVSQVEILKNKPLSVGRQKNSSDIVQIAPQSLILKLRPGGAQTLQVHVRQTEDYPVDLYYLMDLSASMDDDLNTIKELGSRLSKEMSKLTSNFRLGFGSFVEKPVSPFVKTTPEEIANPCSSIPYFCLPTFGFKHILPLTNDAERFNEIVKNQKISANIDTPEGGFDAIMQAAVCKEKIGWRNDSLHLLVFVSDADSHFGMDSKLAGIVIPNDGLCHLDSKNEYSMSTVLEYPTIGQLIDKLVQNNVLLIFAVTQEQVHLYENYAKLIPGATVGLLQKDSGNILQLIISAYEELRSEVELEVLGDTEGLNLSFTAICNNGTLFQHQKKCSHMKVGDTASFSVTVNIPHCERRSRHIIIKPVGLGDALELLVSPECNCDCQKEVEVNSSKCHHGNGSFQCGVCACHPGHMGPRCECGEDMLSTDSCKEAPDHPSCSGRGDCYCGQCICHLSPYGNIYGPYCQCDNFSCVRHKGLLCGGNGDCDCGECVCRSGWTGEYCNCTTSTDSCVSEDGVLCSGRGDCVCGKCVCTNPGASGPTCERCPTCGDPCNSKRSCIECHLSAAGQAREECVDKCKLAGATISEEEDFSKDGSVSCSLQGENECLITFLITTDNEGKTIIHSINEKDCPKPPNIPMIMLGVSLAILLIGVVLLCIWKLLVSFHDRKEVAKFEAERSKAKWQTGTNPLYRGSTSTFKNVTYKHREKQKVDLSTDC

[2] = Drug uptake in human A375PPuro cells at 1000 nM after 15 mins by flow cytometric analysis; format: ADME, cell-based; settings: 0.25 h, 1 µM
Integrin alpha-V/beta-6 [3] = target: T1, Integrin alpha-V/beta-6; test: Binding affinity to alphav/beta6 integrin in human A375Pbeta6 cells at 100 nM after 15 mins by flow cytometric analysis relative to biotinylated A20FMDV2; format: cell-based

CCC(CC)[C@H](NC(=O)[C@@H](NC(=O)[C@H](CCC(N)=O)NC(=O)[C@H](CC(C)C)NC(=O)[C@H](CC(=O)O)NC(=O)CNC(=O)[C@H](CCCNC(=N)N)NC(=O)[C@H](CC(C)C)NC(=O)[C@H](CC(N)=O)NC(=O)[C@@H]1CCCN1C(=O)[C@@H](NC(=O)[C@H](CCCCNC(=O)CCCC[C@@H]1SC[C@@H]2NC(=O)N[C@@H]21)NC(=O)[C@@H](N)CC(N)=O)C(C)C)C(C)C)C(=O)N[C@@H](C)C(=O)N[C@@H](CCC(N)=O)C(=O)N[C@@H](CCCCN)C(=O)N[C@H](C(=O)N[C@@H](C)C(=O)N[C@@H](CCCNC(=N)N)C(=O)N[C@H](C(=O)O)[C@@H](C)O)C(C)C
fold change (FC) (Integrin alpha-V/beta-6 [1]): 0.52 | Drug uptake [2]: Not Active | fold change (FC) (Integrin alpha-V/beta-6 [3]): 0.7

CC(=O)N(C(=O)CN(CCN(CCN(CC(=O)O)CC(=O)O)CC(=O)O)CC(=O)O)[C@@H](CC(N)=O)C(=O)N[C@@H](CCCCNC(=O)CCCC[C@@H]1SC[C@@H]2NC(=O)N[C@@H]21)C(=O)N[C@H](C(=O)N1CCC[C@H]1C(=O)N[C@@H](CC(N)=O)C(=O)N[C@@H](CC(C)C)C(=O)N[C@@H](CCCNC(=N)N)C(=O)NCC(=O)N[C@@H](CC(=O)O)C(=O)N[C@@H](CC(C)C)C(=O)N[C@@H](CCC(N)=O)C(=O)N[C@H](C(=O)N[C@@H](CC(C)C)C(=O)N[C@@H](C)C(=O)N[C@@H](CCC(N)=O)C(=O)N[C@@H](CCCCN)C(=O)N[C@H](C(=O)N[C@@H](C)C(=O)N[C@@H](CCCNC(=N)N)C(=O)N[C@H](C(=O)O)[C@@H](C)O)C(C)C)C(C)C)C(C)C
fold change (FC) (Integrin alpha-V/beta-6 [1]): 1.05 | Drug uptake [2]: Not Active | fold change (FC) (Integrin alpha-V/beta-6 [3]): 1.48

CC(C)C[C@H](NC(=O)[C@H](CC(=O)O)NC(=O)CNC(=O)[C@H](CCCNC(=N)N)NC(=O)[C@H](CC(C)C)NC(=O)[C@H](CC(N)=O)NC(=O)[C@@H]1CCCN1C(=O)[C@@H](NC(=O)[C@H](CCCCNC(=O)CCCC[C@@H]1SC[C@@H]2NC(=O)N[C@@H]21)NC(=O)[C@@H](N)CC(N)=O)C(C)C)C(=O)N[C@@H](CCC(N)=O)C(=O)N[C@H](C(=O)N[C@@H](CC(C)C)C(=O)N[C@@H](C)C(=O)N[C@@H](CCC(N)=O)C(=O)N[C@@H](CCCN)C(=O)N[C@H](C(=O)N[C@@H](C)C(=O)N[C@@H](CCCNC(=N)N)C(=O)N[C@H](C(=O)O)[C@@H](C)O)C(C)C)C(C)C
fold change (FC) (Integrin alpha-V/beta-6 [1]): 0.86 | Drug uptake [2]: Not Active | fold change (FC) (Integrin alpha-V/beta-6 [3]): 1.12

CC(C)C[C@H](NC(=O)[C@H](CC(=O)O)NC(=O)CNC(=O)[C@H](CCCNC(=N)N)NC(=O)[C@H](CC(C)C)NC(=O)[C@H](CC(N)=O)NC(=O)[C@@H]1CCCN1C(=O)[C@@H](NC(=O)[C@H](CCCCNC(=O)CCCC[C@@H]1SC[C@@H]2NC(=O)N[C@@H]21)NC(=O)[C@@H](N)CC(N)=O)C(C)C)C(=O)N[C@@H](CCC(N)=O)C(=O)N[C@H](C(=O)N[C@@H](CC(C)C)C(=O)N[C@@H](C)C(=O)N[C@@H](CCC(N)=O)C(=O)N[C@H](CCCCN)C(=O)N[C@H](C(=O)N[C@@H](C)C(=O)N[C@@H](CCCNC(=N)N)C(=O)N[C@H](C(=O)O)[C@@H](C)O)C(C)C)C(C)C
fold change (FC) (Integrin alpha-V/beta-6 [1]): 0.78 | Drug uptake [2]: Not Active | fold change (FC) (Integrin alpha-V/beta-6 [3]): 1.11

CC(=O)N[C@@H](CC(N)=O)C(=O)N[C@@H](CCCCNC(=O)CCCC[C@@H]1SC[C@@H]2NC(=O)N[C@@H]21)C(=O)N[C@H](C(=O)N1CCC[C@H]1C(=O)N[C@@H](CC(N)=O)C(=O)N[C@@H](CC(C)C)C(=O)N[C@@H](CCCNC(=N)N)C(=O)NCC(=O)N[C@@H](CC(=O)O)C(=O)N[C@@H](CC(C)C)C(=O)N[C@@H](CCC(N)=O)C(=O)N[C@H](C(=O)N[C@@H](CC(C)C)C(=O)N[C@@H](C)C(=O)N[C@@H](CCC(N)=O)C(=O)N[C@@H](CCCCN)C(=O)N[C@H](C(=O)N[C@@H](C)C(=O)N[C@@H](CCCNC(=N)N)C(=O)N[C@H](C(N)=O)[C@@H](C)O)C(C)C)C(C)C)C(C)C
fold change (FC) (Integrin alpha-V/beta-6 [1]): 0.87 | Drug uptake [2]: Not Active | fold change (FC) (Integrin alpha-V/beta-6 [3]): 1.25

CC(C)C[C@H](NC(=O)[C@H](CC(=O)O)NC(=O)CNC(=O)[C@H](CCCNC(=N)N)NC(=O)[C@H](CC(C)C)NC(=O)[C@H](CC(N)=O)NC(=O)[C@@H]1CCCN1C(=O)[C@@H](NC(=O)[C@H](CCCCNC(=O)CCCC[C@@H]1SC[C@@H]2NC(=O)N[C@@H]21)NC(=O)[C@@H](N)CC(N)=O)C(C)C)C(=O)N[C@@H](CCC(N)=O)C(=O)N[C@H](C(=O)N[C@@H](CC(C)C)C(=O)N[C@@H](C)C(=O)N[C@@H](CCC(N)=O)C(=O)N[C@@H](CCCCN)C(=O)N[C@H](C(=O)N[C@@H](C)C(=O)N[C@@H](CCCNC(=N)N)C(=O)N[C@@H](C(=O)O)[C@H](C)O)C(C)C)C(C)C
fold change (FC) (Integrin alpha-V/beta-6 [1]): 0.99 | Drug uptake [2]: Not Active | fold change (FC) (Integrin alpha-V/beta-6 [3]): 0.53

CC(C)C[C@H](NC(=O)[C@H](CC(=O)O)NC(=O)CNC(=O)[C@H](CCCNC(=N)N)NC(=O)[C@H](CC(C)C)NC(=O)[C@H](CC(N)=O)NC(=O)[C@@H]1CCCN1C(=O)[C@@H](NC(=O)[C@H](CCCCNC(=O)CCCC[C@@H]1SC[C@@H]2NC(=O)N[C@@H]21)NC(=O)[C@@H](N)CC(N)=O)C(C)C)C(=O)N[C@@H](CCC(N)=O)C(=O)N[C@H](C(=O)N[C@@H](CC1CCCCC1)C(=O)N[C@@H](C)C(=O)N[C@@H](CCC(N)=O)C(=O)N[C@@H](CCCCN)C(=O)N[C@H](C(=O)N[C@@H](C)C(=O)N[C@@H](CCCNC(=N)N)C(=O)N[C@H](C(=O)O)[C@@H](C)O)C(C)C)C(C)C
fold change (FC) (Integrin alpha-V/beta-6 [1]): 1.01 | Drug uptake [2]: Not Active | fold change (FC) (Integrin alpha-V/beta-6 [3]): 0.62

CC(C)C[C@H](NC(=O)[C@H](CC(=O)O)NC(=O)CNC(=O)[C@H](CCCNC(=N)N)NC(=O)[C@H](CC(C)C)NC(=O)[C@H](CC(N)=O)NC(=O)[C@@H]1CCCN1C(=O)[C@@H](NC(=O)[C@H](CCCCNC(=O)CCCC[C@@H]1SC[C@@H]2NC(=O)N[C@@H]21)NC(=O)[C@@H](N)CC(N)=O)C(C)C)C(=O)N[C@@H](CCC(N)=O)C(=O)N[C@H](C(=O)N[C@H](C(=O)N[C@@H](C)C(=O)N[C@@H](CCC(N)=O)C(=O)N[C@@H](CCCCN)C(=O)N[C@H](C(=O)N[C@@H](C)C(=O)N[C@@H](CCCNC(=N)N)C(=O)N[C@H](C(=O)O)[C@@H](C)O)C(C)C)C12CC3CC(CC(C3)C1)C2)C(C)C
fold change (FC) (Integrin alpha-V/beta-6 [1]): 1.07 | Drug uptake [2]: Not Active | fold change (FC) (Integrin alpha-V/beta-6 [3]): 0.51

CC(C)C[C@H](NC(=O)[C@H](CC(=O)O)NC(=O)CNC(=O)[C@H](CCCNC(=N)N)NC(=O)[C@H](CC(C)C)NC(=O)[C@H](CC(N)=O)NC(=O)[C@@H]1CCCN1C(=O)[C@@H](NC(=O)[C@H](CCCCNC(=O)CCCC[C@@H]1SC[C@@H]2NC(=O)N[C@@H]21)NC(=O)[C@@H](N)CC(N)=O)C(C)C)C(=O)N[C@@H](CCC(N)=O)C(=O)N[C@H](C(=O)N[C@@H](CC(C)C)C(=O)N[C@@H](C)C(=O)N[C@@H](CCC(N)=O)C(=O)N[C@@H](CCN)C(=O)N[C@H](C(=O)N[C@@H](C)C(=O)N[C@@H](CCCNC(=N)N)C(=O)N[C@H](C(=O)O)[C@@H](C)O)C(C)C)C(C)C
fold change (FC) (Integrin alpha-V/beta-6 [1]): 0.86 | Drug uptake [2]: Not Active | fold change (FC) (Integrin alpha-V/beta-6 [3]): 1

CC(C)C[C@H](NC(=O)[C@H](CC(=O)O)NC(=O)CNC(=O)[C@H](CCCNC(=N)N)NC(=O)[C@H](CC(C)C)NC(=O)[C@H](CC(N)=O)NC(=O)[C@@H]1CCCN1C(=O)[C@@H](NC(=O)[C@H](CCCCNC(=O)CCCC[C@@H]1SC[C@@H]2NC(=O)N[C@@H]21)NC(=O)[C@H](CC(N)=O)NC(=O)CNC(=O)CN(CCN(CCN(CC(=O)O)CC(=O)O)CC(=O)O)CC(=O)O)C(C)C)C(=O)N[C@@H](CCC(N)=O)C(=O)N[C@H](C(=O)N[C@@H](CC(C)C)C(=O)N[C@@H](C)C(=O)N[C@@H](CCC(N)=O)C(=O)N[C@@H](CCCCN)C(=O)N[C@H](C(=O)N[C@@H](C)C(=O)N[C@@H](CCCNC(=N)N)C(=O)N[C@H](C(=O)O)[C@@H](C)O)C(C)C)C(C)C
fold change (FC) (Integrin alpha-V/beta-6 [1]): 0.97 | Drug uptake [2]: Not Active | fold change (FC) (Integrin alpha-V/beta-6 [3]): 1.28

CC(C)CC[C@H](NC(=O)[C@@H](NC(=O)[C@H](CCC(N)=O)NC(=O)[C@H](CC(C)C)NC(=O)[C@H](CC(=O)O)NC(=O)CNC(=O)[C@H](CCCNC(=N)N)NC(=O)[C@H](CC(C)C)NC(=O)[C@H](CC(N)=O)NC(=O)[C@@H]1CCCN1C(=O)[C@@H](NC(=O)[C@H](CCCCNC(=O)CCCC[C@@H]1SC[C@@H]2NC(=O)N[C@@H]21)NC(=O)[C@@H](N)CC(N)=O)C(C)C)C(C)C)C(=O)N[C@@H](C)C(=O)N[C@@H](CCC(N)=O)C(=O)N[C@@H](CCCCN)C(=O)N[C@H](C(=O)N[C@@H](C)C(=O)N[C@@H](CCCNC(=N)N)C(=O)N[C@H](C(=O)O)[C@@H](C)O)C(C)C
fold change (FC) (Integrin alpha-V/beta-6 [1]): 0.66 | Drug uptake [2]: Not Active | fold change (FC) (Integrin alpha-V/beta-6 [3]): 0.45

C=CC[C@H](NC(=O)[C@@H](NC(=O)[C@H](CCC(N)=O)NC(=O)[C@H](CC(C)C)NC(=O)[C@H](CC(=O)O)NC(=O)CNC(=O)[C@H](CCCNC(=N)N)NC(=O)[C@H](CC(C)C)NC(=O)[C@H](CC(N)=O)NC(=O)[C@@H]1CCCN1C(=O)[C@@H](NC(=O)[C@H](CCCCNC(=O)CCCC[C@@H]1SC[C@@H]2NC(=O)N[C@@H]21)NC(=O)[C@@H](N)CC(N)=O)C(C)C)C(C)C)C(=O)N[C@@H](C)C(=O)N[C@@H](CCC(N)=O)C(=O)N[C@@H](CCCCN)C(=O)N[C@H](C(=O)N[C@@H](C)C(=O)N[C@@H](CCCNC(=N)N)C(=O)N[C@H](C(=O)O)[C@@H](C)O)C(C)C
fold change (FC) (Integrin alpha-V/beta-6 [1]): 0.82 | Drug uptake [2]: Not Active | fold change (FC) (Integrin alpha-V/beta-6 [3]): 0.58

CCCC[C@H](NC(=O)[C@@H](NC(=O)[C@H](CCC(N)=O)NC(=O)[C@H](CC(C)C)NC(=O)[C@H](CC(=O)O)NC(=O)CNC(=O)[C@H](CCCNC(=N)N)NC(=O)[C@H](CC(C)C)NC(=O)[C@H](CC(N)=O)NC(=O)[C@@H]1CCCN1C(=O)[C@@H](NC(=O)[C@H](CCCCNC(=O)CCCC[C@@H]1SC[C@@H]2NC(=O)N[C@@H]21)NC(=O)[C@@H](N)CC(N)=O)C(C)C)C(C)C)C(=O)N[C@@H](C)C(=O)N[C@@H](CCC(N)=O)C(=O)N[C@@H](CCCCN)C(=O)N[C@H](C(=O)N[C@@H](C)C(=O)N[C@@H](CCCNC(=N)N)C(=O)N[C@H](C(=O)O)[C@@H](C)O)C(C)C
fold change (FC) (Integrin alpha-V/beta-6 [1]): 1.15 | Drug uptake [2]: Not Active | fold change (FC) (Integrin alpha-V/beta-6 [3]): 1.16
